What is called IC50 is the point on the concentration scale where inhibition reaches its midpoint. As a reminder, the Cmax is the highest concentration seen after dosing. In general, bioavailability refers to the share of a dose that reaches the circulation, judged against a reference dose that is usually intravenous. The term half-life denotes the time in which the quantity being followed falls by half. The clearance is the volume of plasma or blood freed of the substance per unit of time.

Activity calls are given as the source filed them. The calls are words filed in the database; no cut-off is given here. Where only a bound is given, the exact number is not on record here.

Data set [1] addresses T1, Adenosine kinase (Homo sapiens, UniProt P55263). The experiment in a line: Inhibition of cytosolic adenosine kinase.
The target in data set [2] is T1, Adenosine kinase. Kind of data set: Inhibition of adenosine kinase in intact cells assessed as adenosine phosphorylation. It counts as functional, cell-based.
Data set [3] deals with Rattus norvegicus. The experiment in a line: Reduction of formalin-induced nociception in rat at 10 umol/kg, ip by paw flinching test. In kind it is functional. The arrangement: scale not given: the % may be the effect or the level left.
Data set [4] in a line: Cmax in rat at 5 umol/kg, po. The settings on record: in vivo. The arrangement: dose 5 umol/kg, route oral. In kind it is ADME, organism-based.
Data set [5] in a line: Volume of distribution in rat at 5 umol/kg, iv. To be noted: in vivo, read-out: Vbeta. It counts as ADME, organism-based.
The subject of data set [6] is Rattus norvegicus. The experiment in a line: Reduction of formalin-induced nociception in rat upto 30 umol/kg, ip by paw flinching test. In kind it is functional, organism-based.
The nature of data set [7]: Bioavailability in rat at 5 umol/kg, po. It counts as ADME, organism-based. To be noted: in vivo.
A short description of data set [8]: Metabolic stability in human liver microsomes after 1 hr. In kind it is ADME, Microsome. To be noted: read-out: Stability. For orientation: Liver microsomes are vesicles of endoplasmic reticulum, rich in cytochrome P450 enzymes.
A short description of data set [9]: Half life in rat at 5 umol/kg, iv. It counts as ADME, organism-based. The settings on record: in vivo.
A short description of data set [10]: Plasma clearance in rat at 5 umol/kg, iv. It counts as ADME, organism-based.
The subject of another data set is Mus musculus. Kind of data set: Analgesic activity in mouse assessed as maximal protective effect at 30 umol/kg, ip by hot plate test. In kind it is functional. Background: Hot-plate and tail-flick tests time the reaction to a heat stimulus.
Data set [11] in a line: Metabolic stability in rat hepatocyte after 24 hrs. In kind it is ADME, cell-based. The settings on record: hepatocytes, read-out: Stability.
Data set [12] is filed under the species Rattus norvegicus. The experiment in a line: Analgesic activity in spinal nerve ligated Sprague-Dawley rat by chung assay neuropathic pain animal model. It counts as functional, organism-based.

T1 sequence (P55263 whole entry): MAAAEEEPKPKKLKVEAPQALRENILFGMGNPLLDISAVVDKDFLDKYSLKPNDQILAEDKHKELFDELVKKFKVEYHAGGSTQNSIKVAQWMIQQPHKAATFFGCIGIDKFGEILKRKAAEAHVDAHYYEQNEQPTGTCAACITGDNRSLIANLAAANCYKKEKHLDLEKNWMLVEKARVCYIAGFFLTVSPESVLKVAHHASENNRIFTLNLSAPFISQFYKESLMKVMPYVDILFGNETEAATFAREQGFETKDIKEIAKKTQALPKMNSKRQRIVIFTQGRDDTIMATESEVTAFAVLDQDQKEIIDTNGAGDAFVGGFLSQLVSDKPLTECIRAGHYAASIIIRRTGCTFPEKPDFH

Take `Cc1ccc(-c2c(N)ncnc2C#Cc2ccc(N(C)C)cc2)cc1`: the IC50 against Adenosine kinase [1] was determined as 13 nM; on Adenosine kinase [2], 330 nM.
Consider `Nc1ncnc(C#Cc2ccc(N3CCOCC3)nc2)c1-c1ccc2c(c1)OCO2`, for which the results for the IC50 against Adenosine kinase [1] and at Adenosine kinase [2] were 10 nM and 120 nM, respectively. This compound displayed an Activity with Rattus norvegicus [3] of 47%.
For `Nc1ncnc2nc(-c3ccc(N4CCOCC4)nc3)cc(-c3cccc(Br)c3)c12`, the highest level in data set [4] (Cmax) was 550 ng/mL. Besides, in [5], the Vd worked out at 1 L/kg.
With `Nc1ncnc(C#Cc2ccc(N3CCOCC3)nn2)c1-c1ccc(Cl)cc1`, the IC50 at Adenosine kinase [1] amounted to 45 nM; on Adenosine kinase [2], 700 nM.
For `CN(C)c1ccc(C#Cc2ncnc(NCCc3c[nH]cn3)c2-c2ccc(Cl)cc2)cc1`, the results for the IC50 at Adenosine kinase [1] and on Adenosine kinase [2] were 80 nM and over 1000 nM, respectively.
Turning to `COCCN(C)c1cc(N2CCOCC2)ncc1C#Cc1ncnc(N)c1-c1ccc2c(c1)OCO2`, the IC50 on Adenosine kinase [1] came to 101 nM; on Adenosine kinase [2] it was 198 nM.
As for `Nc1ncnc(C#Cc2ccc(N3CCOCC3)nc2)c1-c1ccsc1`, the concentration for half-maximal inhibition (IC50) turned out to be 38 nM against Adenosine kinase [1] and 212 nM at Adenosine kinase [2].
In the case of `CN(C)c1cc(N2CCOCC2)ncc1C#Cc1ncnc(N)c1-c1ccc2c(c1)OCO2`, the IC50 is 72 nM at Adenosine kinase [1] and 215 nM on Adenosine kinase [2].
Take `CN(C)c1ccc(C#Cc2ncnc(N)c2-c2ccc(N(C)C)cc2)cc1`: the 50% inhibitory concentration (IC50) stood at 5 nM against Adenosine kinase [1] and 240 nM on Adenosine kinase [2].
`CN(C)c1ccc(C#Cc2cc(NCc3ccccc3)ncn2)cc1`: the IC50 against Adenosine kinase [1] is over 1000 nM.
`CN(C)c1ccc(C#Cc2ncnc(N3CCNCC3)c2-c2ccc(Cl)cc2)cc1`: the IC50 against Adenosine kinase [1] was 8 nM; at Adenosine kinase [2] it was over 1000 nM.
Regarding `CN(C)c1ccc(C#Cc2ncnc(N(C)C)c2-c2ccc(Cl)cc2)cc1`, the IC50 on Adenosine kinase [1] was 300 nM; at Adenosine kinase [2] it was over 1000 nM.
In the case of `CN(C)c1ccc(C#Cc2ncnc(N3CCOCC3)c2-c2ccc(Cl)cc2)cc1`, the IC50 against Adenosine kinase [1] was 6 nM; at Adenosine kinase [2], 970 nM.
Taken in the same sequence, the figures for `COc1ccc(-c2c(N)ncnc2C#Cc2ccc(N(C)C)cc2)cc1OC` were 20 nM and 500 nM.
For `CC(C)NC(=O)Nc1cc(C#Cc2ncnc(N)c2-c2ccc3c(c2)OCO3)cnc1N1CCOCC1`, the IC50 against Adenosine kinase [1] worked out at 18 nM; on Adenosine kinase [2], 88 nM.
For `Nc1ncnc(C#Cc2ccc(N3CCOCC3)nc2)c1-c1cc2ccccc2s1`, the IC50 against Adenosine kinase [1] amounted to 0.4 nM; on Adenosine kinase [2] it was 100 nM. In the data set on Rattus norvegicus [3], this compound gave an Activity of 49%.
Take `CN(C)c1ccc(C#Cc2cc(N)ncn2)cc1`: the IC50 against Adenosine kinase [1] was over 1000 nM.
On to `Nc1ncnc(C#Cc2ccc(N3CCOCC3)nc2)c1-c1cc2ccccc2o1`, for which the IC50 turned out to be 1 nM against Adenosine kinase [1] and 123 nM on Adenosine kinase [2]. In the data set on Rattus norvegicus [3], this compound returned an Activity of 36%.
Consider `CC(C)c1ccc(C#Cc2ncnc(N)c2-c2ccc(Cl)cc2)cc1`, for which the IC50 on Adenosine kinase [1] is 50 nM; on Adenosine kinase [2], over 1000 nM.
On to `CN(C)c1cc(C#Cc2ncnc(N)c2-c2ccc3c(c2)OCO3)cnc1N1CCOCC1`, for which the IC50 against Adenosine kinase [1] was determined as 26 nM; at Adenosine kinase [2], 161 nM. In addition, the result in the data set on Rattus norvegicus [6] was inactive.
Regarding `CN(C)c1ccc(C#Cc2ncnc(N)c2-c2cccc(Cl)c2)cc1`, the half-inhibitory concentration (IC50) on Adenosine kinase [1] amounted to 10 nM; at Adenosine kinase [2] it was 550 nM.
Take `COCCN(C)c1ccc(C#Cc2ncnc(N)c2-c2ccc(Cl)cc2)cn1`: the results for the IC50 against Adenosine kinase [1] and at Adenosine kinase [2] were 1 nM and 80 nM, respectively. The Activity with Rattus norvegicus [3] was 48%.
`CN(C)c1ccc(-c2c(N)ncnc2C#Cc2ccc(N3CCOCC3)nc2)cc1` had a concentration for half-maximal inhibition (IC50) at Adenosine kinase [1] of 2 nM. Also, the peak level in data set [4] (Cmax) was 80 ng/mL. In addition, the bioavailability in [7] came out at 9%. The remaining at 1 h in [8] came to 74%. Also, the results for the Activity in the data set on Rattus norvegicus [3] and in the data set with Mus musculus were 44% and 100%, respectively. Besides, the half-life in data set [9] is 30 min. In data set [5], the Vd is 0.7 L/kg. Further, the clearance in [10] was 16.7 mL/min/kg. Also, the remaining at 24 h in data set [11] was 21%.
As for `Nc1ncnc(C#Cc2ccc(N3CCOCC3)cc2)c1-c1ccc(Cl)cc1`, the results for the IC50 against Adenosine kinase [1] and on Adenosine kinase [2] were 17 nM and 275 nM, respectively. Also, the Activity in the data set with Rattus norvegicus [3] stood at 20%; in the data set with Mus musculus, 67%.
Consider `Nc1ncnc(C#Cc2cnc(N3CCOCC3)nc2)c1-c1ccc(Cl)cc1`, for which the IC50 worked out at 8 nM against Adenosine kinase [1] and 200 nM on Adenosine kinase [2]. The values for the Activity in the data set on Rattus norvegicus [3] and in the data set with Mus musculus were 36% and 100%, respectively. The result in the data set listed under Rattus norvegicus [12] was inactive.
On to `CC(C)(C)OC(=O)N1CCN(c2ccc(C#Cc3ncnc(N)c3-c3ccc(Cl)cc3)cn2)CC1`, for which the IC50 at Adenosine kinase [1] was 62 nM; on Adenosine kinase [2] it was over 1000 nM.
Consider `CN(C)c1ccc(C#Cc2ncnc(N)c2C(c2ccccc2)c2ccccc2)cc1`, for which inhibition against Adenosine kinase [1] was half-maximal at 600 nM (IC50).
`Nc1ncnc(C#Cc2ccc(N3CCOCC3)nc2)c1-c1ccc(Cl)cc1`: the IC50 at Adenosine kinase [1] turned out to be 3 nM; at Adenosine kinase [2], 58 nM. For the same compound, the Activity in the data set on Rattus norvegicus [3] is 29%; in the data set on Mus musculus, 100%. The result in the data set filed under Rattus norvegicus [12] was inactive.
As to `CN(C)c1ccc(C#Cc2ncnc(N)c2-c2ccc(Cl)cc2)cn1`, the Activity with Rattus norvegicus [3] came out at 20%; in the data set on Mus musculus it was 73%. Further, in the data set filed under Rattus norvegicus [12], the result was inactive.
With `CN(C)c1ccc(C#Cc2ncnc(N)c2-c2ccc3c(c2)OCO3)cc1`, the IC50 at Adenosine kinase [2] was 250 nM.
As to `Nc1ncnc(C#Cc2ccc(N3CCOCC3)nc2)c1-c1cccs1`, the IC50 against Adenosine kinase [1] was 13 nM; on Adenosine kinase [2], 167 nM. The compound further registered an Activity with Rattus norvegicus [3] of 44%.
For the compound `CN(C)c1ccc(C#Cc2ncnc(N)c2-c2ccccc2)cc1`, the IC50 on Adenosine kinase [2] is over 1000 nM.
`C#Cc1ncnc(N)c1-c1ccc2c(c1)OCO2` displayed an IC50 against Adenosine kinase [1] of over 1000 nM.
As for `CN(C)c1ccc(C#Cc2ncnc(NCCc3c[nH]c4ccccc34)c2-c2ccc(Cl)cc2)cc1`, the figures for the IC50 at Adenosine kinase [1] and at Adenosine kinase [2] were 38 nM and over 1000 nM, respectively.
Regarding `Cc1nc(N)c(-c2ccccc2)c(C#Cc2ccc(N(C)C)cc2)n1`, at Adenosine kinase [1], the half-inhibitory concentration (IC50) was over 1000 nM.
In the case of `CN(C)c1ccc(C#Cc2ncnc(N)c2-c2ccccc2Cl)cc1`, the IC50 against Adenosine kinase [1] was determined as 75 nM; on Adenosine kinase [2] it was 700 nM.
`Nc1ncnc(C#Cc2ccccn2)c1-c1ccc(Cl)cc1`: the results for the IC50 on Adenosine kinase [1] and at Adenosine kinase [2] were 500 nM and over 1000 nM, respectively.
Consider `Nc1ncnc(C#Cc2cncc(N3CCOCC3)c2)c1-c1ccc(Cl)cc1`, for which the IC50 on Adenosine kinase [1] came to 8 nM; on Adenosine kinase [2], 110 nM. This compound had an Activity in the data set on Rattus norvegicus [3] of 49%.

Source of the values: ChEMBL document CHEMBL1142899, “4-amino-5-aryl-6-arylethynylpyrimidines: structure-activity relationships of non-nucleoside adenosine kinase inhibitors” (Bioorg Med Chem, 2007).
